In PubChem BioAssay AID179 (DTP/NCI, 2004):
Several values for one entry are separate records, joined by “and”; a condition that tells them apart may be missing. Equal entries are not always repeated. Activity calls are given as the source filed them.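 Rule for the calls: active = compounds giving half or more protection of infected cells from virus-caused growth loss, again on retest; inactive = the rest.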 Where a SMILES comes first, the peptide text is derived from it. [ ]: non-standard residue; d: D form. Ava = NCCCCC(=O)O; Mpa = O=C(O)CCS

Test system: CEM cells HIV-1 protection, formazan growth assay
Assay: NCI AIDS Antiviral Assay
Conditions: for IC50: measured here: growth of uninfected CEM cells
How it was run: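 Screen of anti-HIV-1 activity in human CEM cells using a formazan-based growth measurement at five drug concentrations. Hits with 50% or greater protection were repeated, and confirmation required reproducible complete protection.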

SMILES | EC50 | IC50 | outcome
O=C(O)c1cccc(S(=O)(=O)c2ccc([N+](=O)[O-])cc2)c1 | > 200 µM | > 200 µM | –
c1ccc2c3csc4ccccc4c-3nc2c1 | – | – | inactive
CC(C)C(=O)CC(c1ccc(Cl)cc1)N1N=C(C(C)C)CC1c1ccc(Cl)cc1 (stereo not given) | – | – | inactive
C1=C(c2ccccc2)C(N2CCOCC2)Oc2ccccc21 (stereo not given) | > 200 µM | 89.1 µM | –
CN1C=C(C(N)=O)C2CC(O)[C@@](NC(=O)CS(N)(=O)=O)(C(=O)O)C2C1 (stereo not given in full) | > 166 µM | 3.72 µM | –
O=C(c1ccc2c(c1)OCO2)N1OC2C=CC1CC2 (stereo not given) | > 955 µM | 513 µM | –
[CH3][Sn]([CH3])([CH3])[c]1cccc2ccccc12 | – | – | inactive
C=CC(C)(C)n1cc(C2=C(O)C(=O)C(c3cn(C(C)(C)C=C)c4ccccc34)=C(OC(C)=O)C2=O)c2ccccc21 | > 20 µM | 1.07 µM | –
O=C1C2=Nc3ccccc3C(O)N2c2ccccc21 (stereo not given) | > 200 µM | 69.2 µM | –
CC(=O)OC(Cc1ccc2ccccc2n1)(C(F)(F)F)C(F)(F)F | – | – | inactive
CN(C)C1(C(=O)O)CC1 | > 200 µM | > 200 µM | –
CCOC(=O)c1c(N2CCCC2)[nH]c(=O)c(C(c2ccco2)c2c(O)c(C(=O)OCC)c(N3CCCC3)[nH]c2=O)c1O | > 200 µM | 117 µM | –
CCOC(=O)C(=O)N(CC(=O)OC)C(=O)Cc1ccccc1 | 513 µM | 813 µM | –
O=[N+]([O-])c1ccc(-c2ccc(-c3csc(Nc4ccccn4)n3)o2)cc1 | > 5.5 µM | > 5.5 µM | –
[O]=[Sb]([OH])([OH])[c]1ccc(Br)cc1 | > 200 µM | 35.5 µM | –
CCN(CC)CCOC(=O)C(Cc1cccc2ccccc12)CC1CCCO1 (stereo not given) | > 200 µM | > 100 µM | –
CCS(=O)(=O)[C@@]1(C#N)CC[C@]1(C#N)S(=O)(=O)CC | 646 µM | 871 µM | –
COC1=C2C[C@@H](C)C[C@@H](OC)[C@@H](O)[C@H](C)/C=C(\C)[C@@H](OC(N)=O)[C@H](OC)/C=C\C=C(/C)C(=O)NC(=CC1=O)C2=O | > 1.15 µM | 0.0813 µM | –
Clc1cccc(Cl)c1Nc1ccccc1Cc1nc2ccccc2[nH]1 | > 200 µM | 75.9 µM | –
COc1cccc(/C=c2\[nH]c(=O)/c(=C/c3cccc(OC)c3OC)[nH]c2=O)c1OC | > 9.12 µM | > 9.12 µM | –
COC(=O)c1ccc(CSc2ccc(OC)cc2)cc1 | – | – | inactive

SMILES | EC50 | IC50 | outcome
O=C(/C=C/c1ccc(O)c(O)c1)NC(CO)C(=O)O (stereo not given) | > 200 µM | 28.8 µM | –
S=C1SC(=Nc2ccccc2)C(=Nc2ccccc2)N1c1ccc2ccccc2c1 | > 200 µM | 14.1 µM | –
CCCCCCCCCC1CC(=O)OC23CCCC(=O)C12O3 (stereo not given) | > 32.4 µM | > 32.4 µM | –
O=C1ON(c2ccccc2)C(c2ccccc2)N1c1ccccc1 (stereo not given) | > 200 µM | 61.7 µM | –
O=S(O)Cc1ccccc1CSSSCc1ccccc1CS(=O)O | > 200 µM | 102 µM | –
CCOC(=O)C1=C(OC(OCC)C(CC)[Se]c2ccccc2)CCC1 (stereo not given) | > 45.7 µM | > 45.7 µM | –
[N-]=[N+]=Nc1nnc(CCCCc2nnc(N=[N+]=[N-])o2)o1 | > 468 µM | 138 µM | –
COc1cc(/C=C2\C(=O)N(c3ccc(Cl)cc3)C(c3ccccc3)S2(=O)=O)cc(OC)c1OC (stereo not given) | – | – | inactive
COc1ccc(-c2cc(=O)c3c(OC)c(OC)c(OC)cc3o2)cc1 | > 129 µM | 41.7 µM | –
CC1=NC2c3c(-c4ccc(Cl)cc4)cn(-c4ccc(C)cc4)c3N=CN2N1 (stereo not given) | > 100 µM | > 100 µM | –
COc1cc(CNc2ccc(SC)cc2)cc(OC)c1OC | > 100 µM | 4.68 µM and 4.79 µM | –
CCOC(=O)c1ccc(-n2c(SCC)nc3sc(C)c(C)c3c2=O)cc1 | > 200 µM | > 200 µM | –
O=S(=O)(O)c1cc(N=Nc2ccc(O)cc2O)ccc1/C=C/c1ccc(N=Nc2ccc(O)cc2O)cc1S(=O)(=O)O | > 70.8 µM | 66.1 µM | –
CC(C)c1cc(C(C)C)c(B(c2ccccc2)c2ccccc2)c(C(C)C)c1Br | > 200 µM | > 200 µM | –
CCCCCCCCCCCCCCCCCCOCC(C[N+]1(C)CCC(O)CC1)OCC (stereo not given) | > 0.912 µM | > 0.912 µM | –
COc1ccc(/C=N/NC(=O)CSc2nc(-c3ccccc3)c(-c3ccccc3)[nH]2)cc1OC | > 55 µM | 31.6 µM | –
COC(=O)c1cc(=O)n2c(c1C(C)=O)N(C)CC2 | > 427 µM | > 427 µM | –
O=C(Sc1ccccc1)C1OC12CCCCC2 (stereo not given) | > 200 µM | 13.2 µM | –
CC(C)CC1[C@@H](OCc2ccccc2)COS(=O)N1Cc1ccccc1 (stereo not given in full) | > 200 µM | 26.3 µM | –
Cc1cc(O)c(C(C)C)cc1NC(=O)Nc1cccc2ccccc12 | > 56.2 µM | 40.7 µM | –
O=C(Cc1ccccc1)NN1C(=O)C(Cl)C1c1cccc([N+](=O)[O-])c1 (stereo not given) | > 14.5 µM | 8.71 µM | –

SMILES | EC50 | IC50 | outcome
FC1(F)[Se]C2C3CCC(C3)C2C1(F)F (stereo not given) | > 200 µM | > 200 µM | –
CN(C)CCOCn1nnc2ccccc21 | – | – | inactive
CC(=O)NC1C(OCc2ccccc2)OC(CO)C(O)C1OCC(=O)N1CCCC1C(=O)N[C@@H](CCC(=O)NCCNCCNc1c2ccccc2nc2cccc([N+](=O)[O-])c12)C(N)=O (stereo not given in full) | > 100 µM | 1.51 µM | –
Cc1ccc(NC(=S)Nc2ccccc2C)nc1 | > 200 µM | 0.776 µM | –
COc1cc(C)cc2ccc(Br)c(O)c12 | > 200 µM | > 200 µM | –
CC(NC(=O)CCS)C(=O)NC(C)C(=O)NC(Cc1c[nH]c2ccccc12)C(=O)NC(Cc1c[nH]cn1)C(=O)NC(CO)C(=O)NC(Cc1c[nH]c2ccccc12)C(=O)NCCCCC(=O)NC(C)C(=O)NC(CCC(N)=O)C(=O)NC(CCCCN)C(=O)NC(C)C(=O)NC(CCCNC(=N)N)C(=O)NC(CCCCN)C(N)=O (stereo not given) ([Mpa]AAWHSW[Ava]AQKARK-NH2; configuration not given here) | > 20 µM | > 20 µM | –
CC[C@@]1(O)C(=O)OCc2c1cc1n(c2=O)Cc2cc3c(OC)cccc3nc2-1 | > 0.1 µM | 0.0141 µM | –
Cc1cccc(C)c1NC(=O)CCc1n[nH]c(=S)o1 | > 468 µM | > 468 µM | –
CC(=O)NC1(C)CC[C@H]2CC1C(C)=NC2(C)C (stereo not given in full) | > 1050 µM | > 1050 µM | –
Brc1cnc2n[nH]nc2c1 | > 912 µM | 525 µM | –
COC(=O)/C(C#N)=C/n1ccc(=O)[nH]c1=S | > 200 µM | > 200 µM | –
C=C1C(=O)C23C(O)C1CC[C@H]2C12CCCC(C)(C)[C@H]1[C@H](O)[C@]3(O)OC2 (stereo not given in full) | > 724 µM | 0.339 µM | –
OCC1(CNc2cc(Cl)ncn2)CCC1 | > 200 µM | > 200 µM | –
COc1cc(/C=C/c2nc(N)nnc2C)cc(OC)c1OC | > 200 µM | 2.82 µM | –
Cc1ccc(S(=O)(=O)c2ccc(C)cc2[N+](=O)[O-])c([N+](=O)[O-])c1 | > 40.7 µM | > 40.7 µM | –
Cc1cc(N(CCC#N)CCC#N)ccc1/C(N=Nc1ccc([N+](=O)[O-])cc1)=N\NC(=O)c1ccccc1 | > 200 µM | 16.2 µM | –
CC1(C)CNC[C@@](C)(O)C(=O)NC(C)(C)CNC[C@@](C)(O)C(=O)N1 | > 200 µM | > 200 µM | –
Cc1nc2ccc(NC3OC(CO)C(O)C(O)C3O)cc2c(=O)n1-c1ccccc1 (stereo not given) | > 200 µM | > 200 µM | –
NC(=O)C(c1ccccc1)N1CCCCC1 (stereo not given) | – | – | inactive
C=C1C2CCC3(CCC4C5(C)CCCC4(C=NC5)C3C2)C1O (stereo not given) | – | – | inactive
